From patent US9045482B2, “Pyrido[4,3-B]indoles and methods of use” (Medivation Technologies, Inc., priority 2009, dated 2015)

Key:
[1] = target: human recombinant histamine H1 receptor (Homo sapiens, UniProt P35367); experiment: Histamine H1 radioligand binding ([3H]Pyrilamine); details: read-out: Binding data (Percentage Inhibition) Histamine Binding H1
Procedure: To evaluate in radioligand binding assays the activity of compounds of the invention, human recombinant histamine H1 receptor expressed in Chinese hamster ovary (CHO) cells [De Backer, M. et al., Biochem. Biophys. Res. Comm. (1993), 197(3):1601] in a modified Tris-HCl buffer (50 mM Tris-HCl, pH 7.4, 2 mM MgCl2, 100 mM NaCl, 250 mM Sucrose) was used. Compounds of the invention were incubated with 1.2 nM [^3H]Pyrilamine for 180 min at 25° C. Non-specific binding was estimated in the presence of 1 μM pyrilamine. Receptor proteins were filtered and washed, the filters were then counted to determine [^3H]Pyrilamine specifically bound. Compounds were screened at 1 μM or lower, using 1% DMSO as vehicle. Biochemical assay results are presented as the percent inhibition of specific binding in Table 2.

[2] = target: T1, human recombinant serotonin (5-Hydroxytryptamine) 5-HT2C receptor (Homo sapiens, UniProt P28335); experiment: Serotonin 5-HT2C radioligand binding ([3H]Mesulergine)
T1 construct: expressed in transfected cells; host or cells: Chinese hamster ovary (CHO-K1) cells
T1 sequence (P28335 33-458): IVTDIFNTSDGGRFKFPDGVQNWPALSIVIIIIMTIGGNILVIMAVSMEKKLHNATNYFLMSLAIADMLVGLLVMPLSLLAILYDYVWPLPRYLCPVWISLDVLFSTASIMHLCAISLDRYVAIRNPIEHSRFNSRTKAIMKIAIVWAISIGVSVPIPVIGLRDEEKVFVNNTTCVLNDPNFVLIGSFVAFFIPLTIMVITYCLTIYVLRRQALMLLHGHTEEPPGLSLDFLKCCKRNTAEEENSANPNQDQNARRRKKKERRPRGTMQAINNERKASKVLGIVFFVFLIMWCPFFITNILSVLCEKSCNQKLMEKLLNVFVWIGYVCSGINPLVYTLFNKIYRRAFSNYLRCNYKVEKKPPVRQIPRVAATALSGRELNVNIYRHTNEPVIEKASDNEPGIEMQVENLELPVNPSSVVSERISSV
Procedure: (1997), 69:1449] in a modified Tris-HCl buffer (50 mM Tris-HCl, pH 7.4, 0.1% Ascorbic Acid, 10 μM Pargyline) was used. Compounds of the invention were incubated with 1 nM [^3H]Mesulergine for 60 min at 25° C. Non-specific binding was estimated in the presence of 1 μM Mianserin. Receptor proteins were filtered and washed, the filters were then counted to determine [^3H]Mesulergine specifically bound. Compounds were screened at 1 μM or lower, using 1% DMSO as vehicle. Biochemical assay results are presented as the percent inhibition of specific binding in Table 4.

[3] = target: human recombinant dopamine D2L receptor (Homo sapiens, UniProt P14416); experiment: Dopamine D2L radioligand binding ([3H]Spiperone)
Procedure: To evaluate in radioligand binding assays the activity of compounds of the invention, human recombinant dopamine D2L receptor expressed in Chinese hamster ovary (CHO) cells [Grandy, D. K. et al., Proc. Natl. Acad. Sci. USA. (1989), 86:9762; Hayes, G. et al., Mol. Endocrinol. […] Compounds of the invention were incubated with 0.16 nM [^3H]Spiperone for 120 min at 25° C. Non-specific binding was estimated in the presence of 10 μM Haloperidol. Receptor proteins were filtered and washed, the filters were then counted to determine [^3H]Spiperone specifically bound. Compounds were screened at 1 μM or lower, using 1% DMSO as vehicle. Biochemical assay results are presented as the percent inhibition of specific binding in Table 3.

[4] = target: T2, human recombinant adrenergic α2C receptor (Homo sapiens, UniProt P18825); experiment: Adrenergic α2C radioligand binding ([3H]MK-912); details: 0.1 μM ligand conc.
T2 construct: expressed in transfected cells; host or cells: insect Sf9 cells
T2 sequence (P18825 1-462): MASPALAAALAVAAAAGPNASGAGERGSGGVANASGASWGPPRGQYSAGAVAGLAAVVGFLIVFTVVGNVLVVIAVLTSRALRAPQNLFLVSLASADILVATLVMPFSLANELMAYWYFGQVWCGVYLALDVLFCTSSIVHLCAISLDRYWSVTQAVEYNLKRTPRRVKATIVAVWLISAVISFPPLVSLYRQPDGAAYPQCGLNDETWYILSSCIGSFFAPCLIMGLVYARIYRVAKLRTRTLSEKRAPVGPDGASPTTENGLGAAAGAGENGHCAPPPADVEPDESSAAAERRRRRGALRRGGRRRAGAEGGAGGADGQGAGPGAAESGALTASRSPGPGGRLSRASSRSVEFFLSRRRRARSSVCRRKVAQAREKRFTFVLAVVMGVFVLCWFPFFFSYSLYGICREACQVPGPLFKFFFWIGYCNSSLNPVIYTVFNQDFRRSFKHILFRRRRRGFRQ
Procedure: To evaluate in radioligand binding assays the activity of compounds of the invention, human recombinant adrenergic α2C receptor expressed in insect Sf9 cells [Uhlen, S. et al., J. Pharmacol. Exp. Ther. 1994), 271:1558] in a modified Tris-HCl buffer (50 mM Tris-HCl, pH 7.4, 12.5 mM MgCl2, 2 mM EDTA) was used. Compounds of the invention were incubated with 1 nM [^3H]MK-912 for 60 min at 25° C. Non-specific binding was estimated in the presence of 10 μM WB-4101. Receptor proteins were filtered and washed, the filters were then counted to determine [^3H]MK-912 specifically bound. Compounds were screened at 1 μM or lower, using 1% DMSO as vehicle. Compounds of the invention were tested in this biochemical assay. Biochemical assay results for representative compounds were presented as the percent inhibition of specific binding in Table 3.

[5] = target: T3, human recombinant serotonin (5-Hydroxytryptamine) 5-HT5A receptor (Homo sapiens, UniProt P47898); experiment: Serotonin 5-HT5A radioligand binding ([3H]LSD); details: 0.1 μM ligand concentration
T3 construct: expressed in transfected cells; host or cells: Chinese hamster ovary (CHO-K1) cells
Procedure: Compounds of the invention were incubated with 1.7 nM [^3H]Lysergic acid diethylamide (LSD) for 60 min at 37° C. […] Receptor proteins were filtered and washed, the filters were then counted to determine [^3H]LSD specifically bound. Compounds were screened at 1 μM or lower, using 1% DMSO as vehicle. Biochemical assay results are presented as the percent inhibition of specific binding in Table 4.

T3 sequence (P47898 whole entry): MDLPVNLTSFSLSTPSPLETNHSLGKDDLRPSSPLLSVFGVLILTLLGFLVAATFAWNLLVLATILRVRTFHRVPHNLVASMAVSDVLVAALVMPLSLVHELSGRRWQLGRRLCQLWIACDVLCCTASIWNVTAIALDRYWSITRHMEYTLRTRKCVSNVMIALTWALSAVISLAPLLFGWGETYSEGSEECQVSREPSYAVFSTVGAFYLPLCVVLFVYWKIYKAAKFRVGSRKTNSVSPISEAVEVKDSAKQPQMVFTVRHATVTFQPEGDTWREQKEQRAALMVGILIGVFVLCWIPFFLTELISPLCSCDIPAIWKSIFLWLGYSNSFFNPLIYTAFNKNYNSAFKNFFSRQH
Sequence of human recombinant dopamine D2L receptor (P14416 whole entry): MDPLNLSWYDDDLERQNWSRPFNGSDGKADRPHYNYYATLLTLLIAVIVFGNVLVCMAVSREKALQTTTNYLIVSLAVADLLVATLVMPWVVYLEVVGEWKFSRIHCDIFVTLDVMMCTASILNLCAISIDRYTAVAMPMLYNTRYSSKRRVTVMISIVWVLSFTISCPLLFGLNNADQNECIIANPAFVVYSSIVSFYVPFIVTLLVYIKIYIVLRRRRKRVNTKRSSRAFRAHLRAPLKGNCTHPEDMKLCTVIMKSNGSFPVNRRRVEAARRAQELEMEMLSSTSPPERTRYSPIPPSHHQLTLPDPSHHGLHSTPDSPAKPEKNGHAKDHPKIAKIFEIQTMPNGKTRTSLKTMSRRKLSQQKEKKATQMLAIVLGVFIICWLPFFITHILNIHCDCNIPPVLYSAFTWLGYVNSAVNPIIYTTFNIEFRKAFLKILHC
Sequence of human recombinant histamine H1 receptor (P35367 whole entry): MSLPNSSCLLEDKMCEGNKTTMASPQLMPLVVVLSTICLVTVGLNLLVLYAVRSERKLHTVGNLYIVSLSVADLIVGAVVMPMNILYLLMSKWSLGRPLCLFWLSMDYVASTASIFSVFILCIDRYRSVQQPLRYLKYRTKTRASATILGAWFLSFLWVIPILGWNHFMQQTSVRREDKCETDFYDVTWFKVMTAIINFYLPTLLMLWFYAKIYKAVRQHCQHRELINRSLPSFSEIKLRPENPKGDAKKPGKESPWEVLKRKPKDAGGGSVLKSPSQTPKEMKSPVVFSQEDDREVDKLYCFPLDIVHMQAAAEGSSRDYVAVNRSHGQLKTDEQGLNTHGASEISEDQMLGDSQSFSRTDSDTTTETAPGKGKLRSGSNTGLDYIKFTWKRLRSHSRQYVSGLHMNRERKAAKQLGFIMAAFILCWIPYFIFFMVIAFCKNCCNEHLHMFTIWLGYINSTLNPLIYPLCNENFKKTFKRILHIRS

| SMILES | inhibition at 1 µM [1] [%] | Percent Inhibition of ligand binding Serotonin 5-HT2C ([2]; 1 μM ligand concentration) [%] | Percent Inhibition of ligand binding Dopamine D2L ([3]; 1 μM ligand conc.) [%] | inhibition at 0.1 µM [1] [%] | Percent Inhibition of ligand binding Adrenergic α2C [4] [%] | Percent Inhibition of ligand binding Serotonin 5-HT5A [5] [%] | Percent Inhibition of ligand binding Serotonin 5-HT2C ([2]; 0.1 μM ligand concentration) [%] | Percent Inhibition of ligand binding Dopamine D2L ([3]; 0.1 μM ligand conc.) [%] |
| --- | --- | --- | --- | --- | --- | --- | --- | --- |
| Fc1ccc(CCn2c3c(c4cc(Cl)ccc42)C2CCCN2CC3)cc1 (centres unmarked) [Compound 1, 7-(4-fluorophenethyl)-10-chloro-2,3,5,6,7,11c-hexahydro-1H-indolizino[7,8-b]indole] | -2 | 44 | 9 |  |  |  |  |  |
| Fc1ccc(CCn2c3c(c4cc(Cl)ccc42)CN2CCCC2C3)cc1 (centres unmarked) [Compound 2, 10-(4-fluorophenethyl)-7-chloro-2,3,5,10,11,11a-hexahydro-1H-indolizino[7,6-b]indole] | 9 | 53 | 13 |  |  |  |  |  |
| C/C(=C\n1c2c(c3cc(C)ccc31)C1CCCN1CC2)c1ccc(C)nc1 (centres unmarked) [Compound 32, (E)-10-methyl-7-(2-(6-methylpyridin-3-yl)prop-1-enyl)-2,3,5,6,7,11c-hexahydro-1H-indolizino[7,8-b]indole] |  |  |  | 1 | 45 | 24 | 26 | 3 |
| Cc1cnc2c(c1)c1c(n2CCc2ccc(C)nc2)CCN2CCCC12 (centres unmarked) [Compound 33, 10-methyl-7-(2-(6-methylpyridin-3-yl)ethyl)-2,3,5,6,7,1c-hexahydro-1H-pyrido[3′,2′:4,5]pyrrolo[2,3-g]indolizine] |  |  |  | 73 | 4 | 0 | 13 | 1 |
| Cc1ccc(CCn2c3c(c4cccnc42)C2CCCN2CC3)cn1 (centres unmarked) [Compound 34, 7-(2-(6-methylpyridin-3-yl)ethyl)-2,3,5,6,7,1c-hexahydro-1H-pyrido[3′,2′:4,5]pyrrolo[2,3-g]indolizine] |  |  |  | 22 | 1 | 6 | 7 | 6 |
| Cc1ccc(CCn2c3c(c4cccnc42)CN2CCCC2C3)cn1 (centres unmarked) [Compound 35, 11-(2-(6-methylpyridin-3-yl)ethyl)-7,8,9,9a,10,11-hexahydro-5H-pyrido[3′,2′:4,5]pyrrolo[3,2-f]indolizine] |  |  |  | 50 | 2 | 10 | 15 | −3 |
| Cc1cnc2c(c1)c1c(n2CCc2ccc(C)nc2)CC2CCCN2C1 (centres unmarked) [Compound 36, 3-methyl-11-(2-(6-methylpyridin-3-yl)ethyl)-7,8,9,9a,10,11-hexahydro-5H-pyrido[3′,2′:4,5]pyrrolo[3,2-f]indolizine] |  |  |  | 96 | 3 | 25 | 19 | −3 |
| O=C(Cn1c2c(c3cccnc31)CN1CCCC1C2)N1CCCCC1 (centres unmarked) [Compound 37, 1-(piperidin-1-yl)-2-(8,9,9a,10-tetrahydro-5H-pyrido[3′,2′:4,5]pyrrolo[3,2-f]indolizin-11(7H)-yl)ethanone] |  |  |  | 6 | 4 | 8 | 9 | −5 |
| O=C(Cn1c2c(c3cccnc31)C1CCCN1CC2)N1CCCCC1 (centres unmarked) [Compound 38, 1-(piperidin-1-yl)-2-(2,3,5,6-tetrahydro-1H-pyrido[3′,2′:4,5]pyrrolo[2,3-g]indolizin-7(11cH)-yl)ethanone] |  |  |  | 5 | −6 | 8 | 16 | 24 |
